# Measured values: publication PMC12084297, “Cytoplasmic connexin43-microtubule interactions promote glioblastoma stem-like cell maintenance and tumorigenicity” (Cell Death & Disease, 2025)
# Experiments:
# [1] = system: Cx43/α-tubulin interaction; experiment: Co-immunoprecipitation with α-tubulin antibody: Cx43 interaction with α-tubulin; format: cell-based, human; conditions: VTC-037 GSCs, 50 μM, 24 h, cross-linked (DTBP)
# Procedure: Prior to lysis, cross-linking was completed by incubating cells in DTBP (dimethyl 3,3’-dithiobispropionimidate; 2 mM in PBS) for 30 min at 37 °C followed by a glycine quench (100 mM glycine in PBS) for 15 min at room temperature. Cross-linked samples were lysed in RIPA buffer supplemented with Halt^TM Protease and Phosphatase Inhibitor Cocktail as described above, but without sonication. Co-immunoprecipitation (co-IP) assays were also performed without cross-linking; non-cross-linked samples were lysed using a co-IP lysis buffer (0.5% Triton X-100, 50 mM Tris HCl, 150 mM NaCl, 1 mM EDTA, 1 mM EGTA, 1 mM DTT, 0.1 mM Na3VO4, and 1 mM NaF) supplemented with Halt^TM Protease and Phosphatase Inhibitor Cocktail, without sonication. Protein concentration was quantified using the DC protein assay and a standard curve obtained with increasing concentrations of BSA, and 500 μg of total protein was used per reaction for co-IP. Inputs were removed prior to co-IP and denatured in Bolt LDS sample buffer as described above. Remaining protein lysates were incubated with Protein G Sepharose^TM 4 Fast Flow beads (GE Healthcare) for pre-clearance for 30 min at 4 °C. Samples were incubated with 2 μg of mouse anti-α-tubulin (MilliporeSigma, T6199) for cross-linked samples or mouse anti-Cx43 antibody (EMD Millipore; MAB3067) for non-cross-linked samples for 90 min at 4 °C. […]
# VTC-037 GSCs [2] = experiment: Peptide uptake by confocal Z-stack with WGA, VTC-037 GSCs; format: in vitro ADME, human; conditions: 50 μM, 24 h, WGA membrane label
# VTC-037 GSCs [3] = experiment: Gliosphere formation assay, VTC-037 GSCs; format: cell-based, human; conditions: VTC-037, 10, 50 or 100 μM every other day, 2 weeks
# Procedure: (§1) GSCs and PDX GBM22 cells were plated as single cell suspension in low-attachment 96-well plates (GSCs: 100–500 cells per well; GBM22 cells: 500–2000 cells per well), using methods similar to those reported previously. Cells were then treated with peptides every other day. 2 weeks later, gliospheres were observed using phase contrast microscopy on a Revolve microscope (Echo Laboratories). The number of gliospheres was then determined, while the gliosphere size was assessed by diameter measurement. To evaluate stem cell frequency in GSCs, gliosphere formation assay was performed with limiting cell dilutions with cells plated at varying densities in low-attachment 96-well plates. Cells were treated with peptides every other day, and after 2 weeks, gliosphere-positive wells were observed and scored using phase contrast microscopy on a Revolve microscope. The stem cell frequency was analyzed using the online data analysis program ELDA (Extreme Limiting Dilution Analysis).
# Notch1 mRNA = Notch1 mRNA by RT-qPCR, VTC-037 GSCs; format: cell-based, human; conditions: 50 μM, 24 h
# Procedure: RNA was extracted using the PureLink^TM RNA mini extraction kit (Thermo Fisher) and on-column DNA digestion was completed using PureLink^TM DNase according to the manufacturer’s instructions. RNA was reverse transcribed to generate cDNA using the iScript^TM Reverse Transcription SuperMix for RT-qPCR kit (Bio-Rad Laboratories). Real-time PCR was performed using the SYBR select Master Mix for CFX (Thermo Fisher) in hard-shell 96-well PCR plates (Bio-Rad Laboratories) on a CFX Connect Real Time System (Bio-Rad Laboratories). Primer sequences used were: hNOTCH1_Fwd: 5’-CGCACAAGGTGTCTTCCAG-3’; hNOTCH1_Rev: 5’-CGGCGTGTGAGTTGATGA-3’; hHES1_Fwd: 5’-GGCTGGAGAGGCGGCTAA-3’; hHES1_Rev: 5’-[…]-3’; hHEY1_Fwd: 5’-[…]-3’; hHEY1_Rev: 5’-[…]-3’.
# PDX GBM22 cells = experiment: Gliosphere formation assay, PDX GBM22 cells; format: cell-based, human; conditions: 100 μM every other day, 2 weeks
# Procedure: as §1
sequence,measurement,setting,value
VFFKGVKDRVKGRSD [JM2],Cx43 interaction with α-tubulin (co-IP),[1],decrease in Cx43 interaction with α-tubulin
same,Peptide enrichment within cells (Z-stack 3D projection),VTC-037 GSCs [2],enrichment of JM2 (red) within cells
same,GSC-dependent gliosphere formation,VTC-037 GSCs [3],"inhibits VTC-001, VTC-034, and VTC-037 GSC-dependent gliosphere formation in a dose-dependent manner"
same,Gliosphere size (diameter),VTC-037 GSCs [3]; n = 4,significant decrease in gliosphere size
same,Gliosphere number,VTC-037 GSCs [3]; n = 6,"significant decrease in gliosphere size as assessed by diameter measurement (Fig. 6B), and number"
same,Notch1 mRNA level,Notch1 mRNA,not affected at the transcription level
same,GBM22-derived gliosphere size (diameter),PDX GBM22 cells; n = 5,significantly decreases GBM22-derived gliosphere size
same,GBM22-derived gliosphere number,PDX GBM22 cells; n = 6,"significantly decreases GBM22-derived gliosphere size as assessed by diameter measurement (Fig. 8C), and number"
